Read-outs that look alike come from different tables or passages of the source.
Columns and labels:
C9M-TF1 cells [1] = test: Primary high-throughput screen, Alamar Blue, suspension cells; type: cell-based; details: Homo sapiens, 72 h, compound at 10 μM, read-out: percentage kill, C9M
Protocol: (§1) Daughter Plates containing 10 μl of a […] solution of test compound selected from among the candidate compounds stored at […] are thawed at room temperature. A 10 μL volume of 0.1% DMSO in PBS is added to all wells of Column 12 and the wells in Row A-F of Column 1. A 10 μl volume of a pre-determined concentration of the P13-Kinase inhibitor LY294002 is added to wells in Row G and H of Column 1. A 90 μl volume of the appropriate cell culture medium is then added to each well and mixed by repeated aspiration/dispensing. The compounds are at a final test concentration of 10 μM.
(§2) Once the Daughter Plates have been prepared the media is removed from all wells of the cell culture plate using an 8-Channel Vacuum Aspirator. The contents of the Daughter Plates are then transferred to the appropriate wells of their relevant Test Plates and the Test Plates are incubated for 72 h at 37° C. and 5% CO2. At the end of this period Test Plates are assayed by Alamar Blue. A 10 μl volume of Alamar Blue is added to all wells of the Test Plate. The Test Plates are incubated for […] at 37° C. and 5% CO2 and finally read using the BioTek SYNERGY plate reader (Excitation 530125 nm-Emission 590135 nm). Percentage inhibition is determined using Microsoft Excel spreadsheet calculations.
(§3) Suspension cells are split 24 hours prior to drug treatment in order to bring the cultures into the log phase of growth. On the day of the assay the cells are plated directly into the Daughter Plates at the appropriate pre-determined seeding density (Table 1) in 90 μl volumes, the concentration of the test compounds thus being reduced to 10 μM. Cells are plated in all wells apart from those in Column 12 which contain 901 normal culture medium alone. The plates are incubated for 72 h at 37° C. and 5% CO2 after which time they are assayed by Alamar Blue as per the preceding example.
(§4) The figures appearing in the columns are the percentage kill achieved by that compound at 10 μM.

[2] = system: FRAT2 overexpresing TF1 (FRAT2-C9M-TF1 cells); test: as above; type: cell-based; details: Homo sapiens, compound at 10 μM, 72 h
Protocol: as §1, §2, §3, §4

[3] = system: A549 Non Small Cell Lung Carcinoma; test: Primary high-throughput screen, Alamar Blue, adherent cells; type: cell-based; details: Homo sapiens, compound at 10 μM, 72 h, read-out: percentage kill, A549
Protocol: (§5) Adherent cells are plated at a pre-determined seeding density (Table 1) in flat-bottom 96 well plates 24 hours prior to drug treatment. The cell lines are plated in 100 μl volumes in each well. Cells are plated in all wells apart from those in Column 12 which contain 100 μL normal culture medium alone. These plates will be known as the Test Plates. The Test Plates are labelled with a Daughter Plate ID.
as §1, §2, §4

[4] = system: CACO2 Colon adenocarcinoma; test: as above; type: cell-based; details: Homo sapiens, Caco-2; compound at 10 μM, 72 h; read-out: percentage kill, CAC02
Protocol: as §5, §1, §2, §4

[5] = system: HT29 Colorectal adenocarcinoma; test: as above; type: cell-based; details: Homo sapiens, HT-29; compound at 10 μM, 72 h; read-out: percentage kill, HT29
Protocol: as §5, §1, §2, §4

[6] = system: LS123 Colon adenocarcinoma (Dukes' type B); test: as above; type: cell-based; details: Homo sapiens, LS-123; compound at 10 μM, 72 h; read-out: percentage kill, LS123
Protocol: as §5, §1, §2, §4

[7] = system: MCF7 Mammary gland adenocarcinoma; test: as above; type: cell-based; details: Homo sapiens, compound at 10 μM, 72 h, read-out: percentage kill, MCF7
Protocol: as §5, §1, §2, §4

[8] = system: NCI ADR RES Breast adenocarcinoma (pleural effusion); test: as above; type: cell-based; details: Homo sapiens, compound at 10 μM, 72 h, read-out: percentage kill, NCI ADR RES
Protocol: as §5, §1, §2, §4

[9] = system: PC3 Prostate carcinoma (bone metastasis); test: as above; type: cell-based; details: compound at 10 μM, 72 h; read-out: percentage kill, PC3
Protocol: as §5, §1, §2, §4

[10] = system: SW480 Colon adenocarcinoma (Dukes' type B); test: as above; type: cell-based; details: Homo sapiens, compound at 10 μM, 72 h, read-out: percentage kill, SW480
Protocol: as §5, §1, §2, §4

[11] = system: U1810 Non Small Cell Lung Carcinoma; test: as above; type: cell-based; details: U-1810; compound at 10 μM, 72 h; read-out: percentage kill, U1810
Protocol: as §5, §1, §2, §4

C9M-TF1 cells [12] = test: EC50 titration, Alamar Blue, suspension cells; type: cell-based; details: Homo sapiens, 72 h
Protocol: (§6) On the day of the assay compounds are used to prepare dilution series on Titration Plates which are plated at ten times their final screening concentration in 10 μl aliquots.
(§7) Suspension cells are split 24 hours prior to drug treatment in order to bring the cultures into the log phase of growth. On the day of the assay the cells are plated directly into the Titration Plates at the appropriate pre-determined seeding density (Table 1) in 90 μl volumes thus reducing the concentration of the compounds to their final test concentration. The plates are incubated for 72 hours at 37° C. and 5% CO2 after which time they are assayed by Alamar Blue.
(§8) The EC50 values are calculated using the values obtained from the Alamar Blue readout which are converted into a “Percentage of the Untreated Control” and using Graph Pad Prism these values are plotted against the logarithm of the test concentration. Using a non-linear regression analysis a sigmoidal dose-response curve is generated from which the EC50 is determined.

FRAT2-C9M-TF1 cells = test: EC50 titration, Alamar Blue, suspension cells; type: cell-based, Human; details: Homo sapiens, 72 h, Alamar Blue
Protocol: as §6, §7, §8

[13] = system: breast cancer cell line MCF7; test: EC50 titration, Alamar Blue, adherent cells; type: cell-based; details: Homo sapiens, 72 h
Protocol: as §6
(§9) For adherent cell lines plated 24 hours previously, a 90 μl volume of the appropriate cell culture medium is then added to each well of the Titration Plates and mixed by repeated aspiration/dispensing, thus taking the compounds to their final test concentration. Once the Titration Plates have been prepared the media is removed from all wells of the cell culture plate and the contents of the Titration Plates are then transferred to the appropriate wells of their relevant Test Plates and incubated for 72 h at 37° C. and 5% CO2 after which time they are assayed by Alamar Blue. Using a combination of Microsoft Excel and Graph Pad Prism, EC50s are determined.
as §8

[14] = system: colon cancer cell line HT29; test: EC50 titration, Alamar Blue, adherent cells; type: cell-based; details: Homo sapiens, HT-29, 72 h
Protocol: as §6, §9, §8

[15] = system: non-transformed breast cell line MCF10A; test: EC50 titration, Alamar Blue, adherent cells; type: cell-based; details: Homo sapiens, MCF-10A, 72 h
Protocol: as §6, §9, §8

[16] = minus GMCSF, read-out: percentage kill, FRAT2−
[17] = plus GMCSF, read-out: percentage kill, FRAT2+

Compound	inhibition at 10 µM (C9M-TF1 cells [1]; first C9M column)	inhibition at 10 µM (C9M-TF1 cells [1]; second C9M column)	inhibition at 10 µM [2, 16]	inhibition at 10 µM [2, 17]	inhibition at 10 µM [3]	inhibition at 10 µM [4]	inhibition at 10 µM [5]	inhibition at 10 µM [6]	inhibition at 10 µM [7]	inhibition at 10 µM [8]	inhibition at 10 µM [9]	inhibition at 10 µM [10]	inhibition at 10 µM [11]	EC50 (C9M-TF1 cells [12])	EC50 (FRAT2-C9M-TF1 cells; absence of growth factor)	EC50 (FRAT2-C9M-TF1 cells; presence of growth factor)	EC50 [13]	EC50 [14]	EC50 [15]
c1ccc(CNc2ccnc3c(-c4cccc5cccnc45)cnn23)nc1 [Compound 8]	7%	-4%	68%	39%	-3%	71%	78%	92%	83%	85%	56%	71%	68%	17.8 µM	5.62 µM	5.75 µM	1.78 µM	1.51 µM	6.17 µM
Fc1ccc(-c2cnn3c(NCc4ccccn4)ccnc23)cc1Cl [Compound 11]	1%	-6%	71%	35%	5%	61%	25%	22%	22%	18%	-85%	-6%	13%	–	–	–	–	–	–
ClCc1ccccc1-c1cnn2c(NCc3cccs3)ccnc12 [Compound 12]	0%	0%	52%	19%	4%	17%	-5%	31%	36%	-12%	-45%	-22%	18%	–	–	–	–	–	–
c1ccc(CNc2ccnc3c(-c4ccc(N5CCOCC5)cc4)cnn23)nc1 [Compound 13]	-1%	-1%	61%	38%	18%	27%	-13%	55%	56%	28%	-37%	-4%	13%	–	–	–	–	–	–
Clc1cccc(Nc2ccn3ncc(-c4ccncc4)c3n2)c1 [Compound 14]	45%	27%	50%	38%	26%	46%	51%	13%	26%	2%	-4%	10%	2%	–	–	–	–	–	–

Reference: US20080300263A1, “Pyrazolo [1,5-a] pyrimidine compounds and pharmaceutical compositions containing them” (EiRx Therapeutics plc, priority 2005, published 2008)
